Experimental findings from patent publication EP0626016B1, “[…] […]” (BRITISH TECHNOLOGY GROUP LIMITED, priority 1992, dated 1993) are described below.

The target in the experiment is T1, HRP Type VIA (Armoracia rusticana, UniProt P00433).
T1 sequence (P00433 31-338): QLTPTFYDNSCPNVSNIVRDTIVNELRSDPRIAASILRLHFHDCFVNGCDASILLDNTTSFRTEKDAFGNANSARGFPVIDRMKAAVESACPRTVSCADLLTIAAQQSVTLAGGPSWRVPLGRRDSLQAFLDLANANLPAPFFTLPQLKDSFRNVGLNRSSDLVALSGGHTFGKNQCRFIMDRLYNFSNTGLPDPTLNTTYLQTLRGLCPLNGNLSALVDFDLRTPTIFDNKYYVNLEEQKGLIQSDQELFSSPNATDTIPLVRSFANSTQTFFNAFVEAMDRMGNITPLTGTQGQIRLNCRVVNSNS
To be noted: 10µl test compound; for (d) Signal: Background: ratio (control = with no enhancer): control value in brackets not reported.

Read-outs that look alike come from different tables or passages of the source.

With `O=[N+]([O-])c1cc(B(O)O)ccc1Cl` [Compound 1021, 4-chloro-3-nitrophenylboronic acid], where the note is “0.01 mg/ml”, the “(a) Decrease in background (without HRP with test cpd.)” value is “Y”; the “(b) Increase in signal (with HRP, with test cpd.)” value (from here on “(b) Increase in signal”) was “Y”; the “(c) Increase in signal: background ratio” value was “Y (Column (c) shows whether there was an increase in the signal:background ratio by over 25% of the control value (Y = yes)”; the “(d) Signal: Background: ratio (control = with no enhancer)” value is 2.3 (1.8). For the setting “0.1 mg/ml”, the “(a) Decrease in background (without HRP with test cpd.)” value is “Y”; the “(b) Increase in signal” value is on record as “Y”; the “(c) Increase in signal: background ratio” value was “Y (Column (c) shows whether there was an increase in the signal:background ratio by over 25% of the control value (Y = yes)”; the “(d) Signal: Background: ratio (control = with no enhancer)” value is listed as 44.5 (2.8). In addition, under “1 mg/ml”, the “(a) Decrease in background (without HRP with test cpd.)” value is “Y”; the “(b) Increase in signal” value was “Y”; the “(c) Increase in signal: background ratio” value was “Y (Column (c) shows whether there was an increase in the signal:background ratio by over 25% of the control value (Y = yes)”; the “(d) Signal: Background: ratio (control = with no enhancer)” value is listed as 247.9 (4.5).
For the compound `OB(O)c1cccc(Cl)c1Cl` [Compound 1022, 2,3-dichlorophenylboronic acid], for the setting “0.01 mg/ml”, the “(a) Decrease in background (without HRP with test cpd.)” value is given as “Y”; the “(b) Increase in signal” value was “N”; the “(c) Increase in signal: background ratio” value is recorded as “N (N = no)”; the “(d) Signal: Background: ratio (control = with no enhancer)” value is 2.2 (2.0). Where the note is “0.1 mg/ml”, the “(a) Decrease in background (without HRP with test cpd.)” value is “Y”; the “(b) Increase in signal” value is reported as “N”; the “(c) Increase in signal: background ratio” value is on record as “Y (Column (c) shows whether there was an increase in the signal:background ratio by over 25% of the control value (Y = yes)”; the “(d) Signal: Background: ratio (control = with no enhancer)” value is 3.6 (2.7). In addition, under “1 mg/ml”, the “(a) Decrease in background (without HRP with test cpd.)” value was “Y”; the “(b) Increase in signal” value was “N”; the “(c) Increase in signal: background ratio” value is recorded as “N (N = no)”.
With `OB(O)c1cc(Cl)ccc1Cl` [Compound 1023, 2,5-dichlorophenylboronic acid], under “0.01 mg/ml”, the “(a) Decrease in background (without HRP with test cpd.)” value is “Y”; the “(b) Increase in signal” value is “N”; the “(c) Increase in signal: background ratio” value is listed as “N (N = no)”. Besides, for the setting “0.1 mg/ml”, the “(a) Decrease in background (without HRP with test cpd.)” value was “Y”; the “(b) Increase in signal” value is “N”; the “(c) Increase in signal: background ratio” value was “N (N = no)”; the “(d) Signal: Background: ratio (control = with no enhancer)” value was 3.1 (2.7). In addition, where the note is “1 mg/ml”, the “(a) Decrease in background (without HRP with test cpd.)” value is given as “Y”; the “(b) Increase in signal” value is given as “N”; the “(c) Increase in signal: background ratio” value was “N (N = no)”.
As to `OB(O)c1ccc(Cl)c(Cl)c1` [Compound 1024, 3,4-dichlorophenylboronic acid], for the setting “0.01 mg/ml”, the “(a) Decrease in background (without HRP with test cpd.)” value was “Y”; the “(b) Increase in signal” value is on record as “N”; the “(c) Increase in signal: background ratio” value was “N (N = no)”. Where the note is “0.1 mg/ml”, the “(a) Decrease in background (without HRP with test cpd.)” value was “Y”; the “(b) Increase in signal” value is reported as “Y”; the “(c) Increase in signal: background ratio” value is given as “Y (Column (c) shows whether there was an increase in the signal:background ratio by over 25% of the control value (Y = yes)”; the “(d) Signal: Background: ratio (control = with no enhancer)” value was 5.4 (2.8). In addition, for the setting “1 mg/ml”, the “(a) Decrease in background (without HRP with test cpd.)” value is reported as “Y”; the “(b) Increase in signal” value is “N”; the “(c) Increase in signal: background ratio” value is given as “Y (Column (c) shows whether there was an increase in the signal:background ratio by over 25% of the control value (Y = yes)”; the “(d) Signal: Background: ratio (control = with no enhancer)” value is 7.6 (4.5).
On to `OB(O)c1cc(Cl)cc(Cl)c1` [Compound 1025, 3,5-dichlorophenylboronic acid], for which, under “0.01 mg/ml”, the “(a) Decrease in background (without HRP with test cpd.)” value is reported as “Y”; the “(b) Increase in signal” value is “N”; the “(c) Increase in signal: background ratio” value is “N (N = no)”; the “(d) Signal: Background: ratio (control = with no enhancer)” value was 2.1 (2.0). Under “0.1 mg/ml”, the “(a) Decrease in background (without HRP with test cpd.)” value is reported as “Y”; the “(b) Increase in signal” value is “N”; the “(c) Increase in signal: background ratio” value is “N (N = no)”. Under “1 mg/ml”, the “(a) Decrease in background (without HRP with test cpd.)” value was “Y”; the “(b) Increase in signal” value was “N”; the “(c) Increase in signal: background ratio” value was “N (N = no)”.
`Nc1c(Cl)cc(Cl)c(B(O)O)c1Cl` [Compound 1026, 3-amino-2,4,6-trichlorophenylboronic acid]: for the setting “0.01 mg/ml”, the “(a) Decrease in background (without HRP with test cpd.)” value is reported as “Y”; the “(b) Increase in signal” value is “N”; the “(c) Increase in signal: background ratio” value was “N (N = no)”; the “(d) Signal: Background: ratio (control = with no enhancer)” value is 2.1 (2.0). Where the note is “0.1 mg/ml”, the “(a) Decrease in background (without HRP with test cpd.)” value is “Y”; the “(b) Increase in signal” value is on record as “Y”; the “(c) Increase in signal: background ratio” value is listed as “Y (Column (c) shows whether there was an increase in the signal:background ratio by over 25% of the control value (Y = yes)”; the “(d) Signal: Background: ratio (control = with no enhancer)” value is listed as 72.4 (2.8). Under “1 mg/ml”, the “(a) Decrease in background (without HRP with test cpd.)” value is recorded as “Y”; the “(b) Increase in signal” value is “N”; the “(c) Increase in signal: background ratio” value is recorded as “Y (Column (c) shows whether there was an increase in the signal:background ratio by over 25% of the control value (Y = yes)”; the “(d) Signal: Background: ratio (control = with no enhancer)” value is 40.5 (4.5).
